Reference: paper PMC2680423 (Cell calcium, 2009)
Read-outs that look alike come from different tables or passages of the source.

Legend:
Drosophila TRPL channel [1] = molecular target: T1, Drosophila TRPL channel (Drosophila melanogaster, UniProt P48994); assay: Whole cell patch clamp of TRPL channels expressed in S2 cells; type: cell-based; details: for TRPL Activation/Inhibition: Table 1, TRPL expressed in S2 cells; for Reversibility of effect on TRPL channel: washout, S2 cells
T1 sequence (P48994 1-1124): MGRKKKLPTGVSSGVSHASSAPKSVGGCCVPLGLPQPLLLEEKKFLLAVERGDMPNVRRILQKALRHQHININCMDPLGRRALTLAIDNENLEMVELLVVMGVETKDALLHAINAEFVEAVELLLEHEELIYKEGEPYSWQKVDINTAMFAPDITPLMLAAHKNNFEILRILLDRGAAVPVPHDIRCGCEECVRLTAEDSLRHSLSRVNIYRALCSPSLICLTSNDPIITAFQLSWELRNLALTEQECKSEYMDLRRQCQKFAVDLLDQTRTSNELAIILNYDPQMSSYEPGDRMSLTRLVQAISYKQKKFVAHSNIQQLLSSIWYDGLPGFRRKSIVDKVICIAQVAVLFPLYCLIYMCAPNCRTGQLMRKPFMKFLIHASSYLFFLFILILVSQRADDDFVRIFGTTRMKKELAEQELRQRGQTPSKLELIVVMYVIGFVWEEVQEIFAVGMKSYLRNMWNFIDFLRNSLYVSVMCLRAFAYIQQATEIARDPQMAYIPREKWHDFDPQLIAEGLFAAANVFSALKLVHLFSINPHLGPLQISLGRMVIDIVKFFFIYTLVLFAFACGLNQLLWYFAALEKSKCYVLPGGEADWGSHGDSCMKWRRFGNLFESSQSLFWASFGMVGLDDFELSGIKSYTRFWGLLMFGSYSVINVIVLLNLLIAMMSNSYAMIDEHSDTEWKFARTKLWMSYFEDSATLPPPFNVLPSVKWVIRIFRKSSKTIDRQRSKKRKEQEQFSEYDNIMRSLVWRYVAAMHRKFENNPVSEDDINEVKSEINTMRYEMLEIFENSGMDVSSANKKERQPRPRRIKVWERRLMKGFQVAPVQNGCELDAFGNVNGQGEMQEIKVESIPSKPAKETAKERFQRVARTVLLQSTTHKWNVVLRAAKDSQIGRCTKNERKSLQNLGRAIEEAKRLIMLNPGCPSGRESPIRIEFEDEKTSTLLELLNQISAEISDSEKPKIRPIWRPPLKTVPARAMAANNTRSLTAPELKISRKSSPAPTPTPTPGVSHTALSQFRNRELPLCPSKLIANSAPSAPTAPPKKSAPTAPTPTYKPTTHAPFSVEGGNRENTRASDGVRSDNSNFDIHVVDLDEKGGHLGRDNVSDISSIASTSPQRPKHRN

Drosophila TRPL channel [2] = molecular target: T1, Drosophila TRPL channel; details: Table 1; no own experiment shown; cited from earlier work
[3] = tested on: S2 cells (TRPL not expressed); type: cell-based, Drosophila; details: control S2 cells
mammalian TRPM7 = mammalian TRPM7 (Mus musculus, UniProt Q923J1); assay: Whole cell patch clamp of TRPM7 expressed in HEK293 cells; type: cell-based
TRPM8 = details: cited from earlier work
[4] = tested on: mock transfected HEK293 cells; assay: Control: mock transfected HEK293 cells, whole cell patch clamp; type: cell-based, Human; details: TRPM7 not expressed
[5] = tested on: control hippocampal neurons; assay: Synaptic vesicle release; type: cell-based; details: 500μM
native TRPL channel = molecular target: T2, native TRPL channel (Drosophila melanogaster, UniProt P48994); assay: Light induced current
T2 sequence (P48994 1-1124): T1 sequence (P48994 1-1124)

[6] = molecular target: TRPM7-GFP expressed in hippocampal neurons (Mus musculus, UniProt Q923J1); assay: Synaptic vesicle release; type: cell-based; details: 500μM
native TRP channel = molecular target: T3, native TRP channel (Drosophila melanogaster, UniProt P19334); assay: Light induced current; details: WT photoreceptors, 6 min in the dark after application
T3 sequence (P19334 1-1275): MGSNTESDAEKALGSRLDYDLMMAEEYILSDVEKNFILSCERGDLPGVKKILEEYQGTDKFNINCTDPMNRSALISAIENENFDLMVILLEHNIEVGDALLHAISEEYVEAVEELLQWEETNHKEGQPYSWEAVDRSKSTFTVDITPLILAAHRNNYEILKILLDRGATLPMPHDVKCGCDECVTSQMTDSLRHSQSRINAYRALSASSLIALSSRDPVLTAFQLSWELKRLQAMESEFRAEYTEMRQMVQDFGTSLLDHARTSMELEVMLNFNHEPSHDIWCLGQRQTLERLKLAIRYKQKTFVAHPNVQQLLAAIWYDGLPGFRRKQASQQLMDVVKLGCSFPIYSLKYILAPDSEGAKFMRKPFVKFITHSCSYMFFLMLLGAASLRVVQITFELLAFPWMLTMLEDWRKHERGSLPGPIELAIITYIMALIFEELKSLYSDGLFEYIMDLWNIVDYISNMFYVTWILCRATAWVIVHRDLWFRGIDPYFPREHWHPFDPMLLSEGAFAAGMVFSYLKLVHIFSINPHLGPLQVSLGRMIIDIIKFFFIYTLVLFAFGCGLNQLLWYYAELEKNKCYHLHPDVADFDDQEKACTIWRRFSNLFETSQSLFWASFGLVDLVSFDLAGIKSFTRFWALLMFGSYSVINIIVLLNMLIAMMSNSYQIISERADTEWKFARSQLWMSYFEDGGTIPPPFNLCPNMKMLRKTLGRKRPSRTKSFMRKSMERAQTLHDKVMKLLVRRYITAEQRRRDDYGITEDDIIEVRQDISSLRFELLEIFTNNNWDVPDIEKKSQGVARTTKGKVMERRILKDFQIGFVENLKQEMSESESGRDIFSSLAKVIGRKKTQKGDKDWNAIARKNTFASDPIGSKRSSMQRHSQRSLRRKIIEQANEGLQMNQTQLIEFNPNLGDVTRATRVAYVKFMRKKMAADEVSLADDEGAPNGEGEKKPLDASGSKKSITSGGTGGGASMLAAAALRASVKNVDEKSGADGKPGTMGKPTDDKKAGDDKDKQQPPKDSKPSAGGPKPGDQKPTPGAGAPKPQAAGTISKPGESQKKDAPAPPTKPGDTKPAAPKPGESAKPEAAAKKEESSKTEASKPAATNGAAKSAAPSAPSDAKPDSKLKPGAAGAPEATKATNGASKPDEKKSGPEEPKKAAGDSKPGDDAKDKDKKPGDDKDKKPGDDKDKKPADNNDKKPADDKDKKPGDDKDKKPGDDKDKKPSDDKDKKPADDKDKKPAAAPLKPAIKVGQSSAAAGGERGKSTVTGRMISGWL

Chain of mammalian TRPM7 (Q923J1 whole entry): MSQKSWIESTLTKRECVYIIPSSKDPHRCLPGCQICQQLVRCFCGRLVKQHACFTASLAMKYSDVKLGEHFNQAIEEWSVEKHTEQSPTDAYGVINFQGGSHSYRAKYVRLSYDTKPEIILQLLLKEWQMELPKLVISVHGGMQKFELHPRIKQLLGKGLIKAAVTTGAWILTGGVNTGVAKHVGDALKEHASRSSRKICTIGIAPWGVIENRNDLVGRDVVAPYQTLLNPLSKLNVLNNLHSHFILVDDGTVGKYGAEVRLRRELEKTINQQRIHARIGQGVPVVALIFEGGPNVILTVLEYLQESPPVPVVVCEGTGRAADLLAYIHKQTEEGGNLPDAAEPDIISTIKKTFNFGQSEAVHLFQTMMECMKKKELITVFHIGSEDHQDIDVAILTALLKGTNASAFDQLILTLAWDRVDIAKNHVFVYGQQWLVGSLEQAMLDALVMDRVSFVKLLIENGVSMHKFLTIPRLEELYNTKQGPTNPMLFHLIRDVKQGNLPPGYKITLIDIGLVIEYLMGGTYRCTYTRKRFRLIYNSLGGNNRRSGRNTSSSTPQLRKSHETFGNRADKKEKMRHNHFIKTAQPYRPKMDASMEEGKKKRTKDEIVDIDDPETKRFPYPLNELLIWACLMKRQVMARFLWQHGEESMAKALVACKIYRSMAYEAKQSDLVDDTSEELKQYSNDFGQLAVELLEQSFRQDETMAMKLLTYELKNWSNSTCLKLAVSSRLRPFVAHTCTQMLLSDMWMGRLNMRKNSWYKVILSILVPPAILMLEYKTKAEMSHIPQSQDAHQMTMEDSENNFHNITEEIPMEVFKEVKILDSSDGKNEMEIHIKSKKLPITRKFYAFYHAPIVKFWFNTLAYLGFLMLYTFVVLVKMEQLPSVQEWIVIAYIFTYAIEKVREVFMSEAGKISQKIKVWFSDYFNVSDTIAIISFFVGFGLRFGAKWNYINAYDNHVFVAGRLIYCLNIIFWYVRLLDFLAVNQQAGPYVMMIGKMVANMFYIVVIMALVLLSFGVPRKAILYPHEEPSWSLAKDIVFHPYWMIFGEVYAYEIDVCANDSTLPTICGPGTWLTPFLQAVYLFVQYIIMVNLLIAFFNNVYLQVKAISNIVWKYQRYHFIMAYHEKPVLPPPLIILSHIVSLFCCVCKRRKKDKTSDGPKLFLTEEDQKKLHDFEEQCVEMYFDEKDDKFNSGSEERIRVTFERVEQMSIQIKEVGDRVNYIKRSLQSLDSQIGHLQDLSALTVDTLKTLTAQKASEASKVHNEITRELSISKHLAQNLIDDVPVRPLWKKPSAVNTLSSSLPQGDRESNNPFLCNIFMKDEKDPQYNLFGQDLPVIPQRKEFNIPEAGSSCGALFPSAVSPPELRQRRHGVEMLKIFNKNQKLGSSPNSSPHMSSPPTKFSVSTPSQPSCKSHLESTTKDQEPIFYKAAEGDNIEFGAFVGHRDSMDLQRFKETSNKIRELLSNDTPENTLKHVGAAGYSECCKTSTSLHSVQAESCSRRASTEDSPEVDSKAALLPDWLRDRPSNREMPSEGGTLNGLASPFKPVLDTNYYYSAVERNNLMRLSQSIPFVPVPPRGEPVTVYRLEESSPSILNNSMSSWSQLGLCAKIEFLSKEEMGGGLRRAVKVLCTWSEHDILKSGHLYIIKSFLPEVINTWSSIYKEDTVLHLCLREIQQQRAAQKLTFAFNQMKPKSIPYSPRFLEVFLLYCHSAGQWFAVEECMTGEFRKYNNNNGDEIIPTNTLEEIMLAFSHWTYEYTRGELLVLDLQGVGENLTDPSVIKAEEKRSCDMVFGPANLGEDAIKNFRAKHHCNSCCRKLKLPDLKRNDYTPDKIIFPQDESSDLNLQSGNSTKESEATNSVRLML
Chain of TRPM7-GFP expressed in hippocampal neurons (Q923J1 whole entry): as above

**Q.** With `C=C(C)C1CC=C(C)C(O)C1` (mixture of isomers) [Carveol] as the molecule, how does the IC50 (Drosophila TRPL channel [1]) read?
**A.** Its IC50 is 4.22 ± 0.4 mM.

**Q.** And the “Effect on TRPL-mediated current” value (Drosophila TRPL channel [1]; 5mM (caffeic acid: up to 5mM))?
**A.** The value was “large decrease in the TRPL-dependent current”.

**Q.** And the “TRPL Activation/Inhibition” value (Drosophila TRPL channel [1])?
**A.** The value was “Inhibition”.

**Q.** Which “TRPL Activation/Inhibition” value (Drosophila TRPL channel [2]) does the source give for `NCCOB(c1ccccc1)c1ccccc1` [2-APB, 2-Aminoethoxydiphenyl borate] here?
**A.** Its value is “Inhibition”.

**Q.** With `CC1(C)C2CCC1(C)C(O)C2` (centres unmarked) [Borneol] as the molecule, how does the “Effect on current when TRPL was not expressed” value [3] read?
**A.** The value was “no effect”.

**Q.** And the “Effect on TRPL-mediated current” value (Drosophila TRPL channel [1]; 5mM (caffeic acid: up to 5mM))?
**A.** Its value is “activated”.

**Q.** What about the “TRPL Activation/Inhibition” value (Drosophila TRPL channel [1]) of the same molecule?
**A.** Its value is “Activation”.

**Q.** And the “Reversibility of effect on TRPL channel” value (Drosophila TRPL channel [1])?
**A.** The value was “completely reversible”.

**Q.** Which “Effect on TRPL-mediated current” value (Drosophila TRPL channel [1]; 5mM (caffeic acid: up to 5mM)) does the source give for `O=C(O)/C=C/c1ccc(O)c(O)c1` [Caffeic acid] here?
**A.** The value was “did not block”.

**Q.** And the “TRPL Activation/Inhibition” value (Drosophila TRPL channel [1])?
**A.** The value was “No effect”.

**Q.** With `CC12CCC(CC1=O)C2(C)C` (centres unmarked) [Camphor] as the molecule, how does the “Effect on TRPL-mediated current” value (Drosophila TRPL channel [1]; 10mM) read?
**A.** The value was “activated”.

**Q.** What about the “TRPL Activation/Inhibition” value (Drosophila TRPL channel [1]) of the same molecule?
**A.** The value was “Activation”.

**Q.** With `Cc1ccc(C(C)C)cc1O` [Carvacrol] as the molecule, how does the “Effect on TRPM7 mediated current” value (mammalian TRPM7; 500μM) read?
**A.** Its value is “dramatic decrease”.

**Q.** What about the “Reversibility of block of TRPM7” value (mammalian TRPM7; HEK293 cells) of the same molecule?
**A.** Its value is “reversibly blocked”.

**Q.** What about the “Effect on TRPM8” value (TRPM8) of the same molecule?
**A.** Its value is “only a minimal effect”.

**Q.** What about the “Effect on current when TRPL was not expressed” value [3] of the same molecule?
**A.** The value was “no effect”.

**Q.** And the “Effect on current in mock transfected HEK293 cells” value [4]?
**A.** The value was “no effect”.

**Q.** What about the “Effect on presynaptic activity in control neurons” value [5] of the same molecule?
**A.** The value was “did not affect”.

**Q.** What about the “ΔF median of boutons after application” value ([5]; before application 88) of the same molecule?
**A.** Its value is 87 arbitrary units.

**Q.** What about the “Number of FM detectable boutons after application” value ([5]; before application 764) of the same molecule?
**A.** The value was 845.

**Q.** And the “Effect on amplitude of the LIC (native TRPL)” value (native TRPL channel; 500μM, trp^P343 mutant photoreceptor)?
**A.** The value was “dramatic reduction”.

**Q.** What about the “Requirement of light stimulation for inhibition of native TRPL” value (native TRPL channel; carvacrol applied in the dark, trp^P343) of the same molecule?
**A.** Its value is “does not require light stimulation”.

**Q.** What about the “ΔF median of boutons after application” value ([6]; before application 73) of the same molecule?
**A.** Its value is 75 arbitrary units (a.u).

**Q.** And the “Number of FM detectable boutons after application” value ([6]; before application 578)?
**A.** Its value is 318.

**Q.** And the “Effect on TRPL-mediated current” value (Drosophila TRPL channel [1]; 500μM)?
**A.** Its value is “Large suppression of the current”.

**Q.** What about the “TRPL Activation/Inhibition” value (Drosophila TRPL channel [1]) of the same molecule?
**A.** The value was “Inhibition”.

**Q.** What about the “Reversibility of effect on TRPL channel” value (Drosophila TRPL channel [1]) of the same molecule?
**A.** The value was “reversibly blocked”.

**Q.** And the “Effect on LIC of WT flies (TRP channel)” value (native TRP channel)?
**A.** Its value is “inhibits”.

**Q.** What does the source list for `O=C/C=C/c1ccccc1` [Cinnamaldehyde]?
**A.** Effect on TRPL-mediated current (Drosophila TRPL channel [1]; 2mM): decrease in the TRPL mediated current; TRPL Activation/Inhibition (Drosophila TRPL channel [1]): Inhibition; Reversibility of effect on TRPL channel (Drosophila TRPL channel [1]): reversible

**Q.** What does the source list for `C=CCc1ccc(O)c(OC)c1` [Eugenol]?
**A.** Effect on TRPL-mediated current (Drosophila TRPL channel [1]; 3mM): large decrease in the TRPL-dependent current; TRPL Activation/Inhibition (Drosophila TRPL channel [1]): Inhibition

**Q.** For `CC1CCC(C(C)C)C(O)C1` (centres unmarked) [Menthol], which IC50 (Drosophila TRPL channel [1]) is on record?
**A.** Its IC50 is 1.81 ± 0.13 mM.

**Q.** And the “Effect on TRPL-mediated current” value (Drosophila TRPL channel [1]; 5mM (caffeic acid: up to 5mM))?
**A.** The value was “large decrease in the TRPL-dependent current”.

**Q.** What about the “TRPL Activation/Inhibition” value (Drosophila TRPL channel [1]) of the same molecule?
**A.** Its value is “Inhibition”.

**Q.** Which “Effect on TRPL-mediated current” value (Drosophila TRPL channel [1]; 1mM) does the source give for `Cc1ccc(C(C)C)c(O)c1` [Thymol] here?
**A.** Its value is “large decrease in the TRPL-dependent current”.

**Q.** What about the “TRPL Activation/Inhibition” value (Drosophila TRPL channel [1]) of the same molecule?
**A.** Its value is “Inhibition”.
